Measurements: PMC10614163 (ACS nano, 2023)

Columns and labels:
M^pro = M^pro (Severe acute respiratory syndrome coronavirus 2, UniProt P0DTD1); experiment: M^pro-mediated dye release from coacervates; type: biochemical, SARS-CoV-2; conditions: (R5R5, D10) coacervates, 100 μM dye
[1] = for partitioning / effect on coacervates, in words: confocal microscopy, (R5R5, D10) coacervates

SMILES	Release efficiency, RE%, by M^pro (M^pro)	Encapsulation efficiency, EE% [1]	partitioning / effect on coacervates, in words [1]
CC/N=c1\cc2oc3cc(NCC)c(C)cc3c(-c3ccccc3C(=O)OCC)c-2cc1C [Rhodamine 6G, rhodamine 6G]	98 ± 1%	64 ± 4%	
Cc1cc2nc3ccc(N(C)C)cc3nc2cc1N.Cl [Neutral red, neutral red]	99 ± 1%	93 ± 1%	
COc1cccc2c1C(=O)c1c(O)c3c(c(O)c1C2=O)C[C@@](O)(C(=O)CO)C[C@@H]3O[C@H]1C[C@H](N)[C@H](O)[C@H](C)O1 [doxorubicin]			rapidly cause transformation of coacervates into solid aggregates
O=C1OC2(c3ccc(O)cc3Oc3cc(O)ccc32)c2ccccc21 [Fluoresceine, fluoresceine]	73 ± 7%		
CCN(CC)c1ccc2c(-c3ccccc3C(=O)O)c3ccc(=[N+](CC)CC)cc-3oc2c1 [Rhodamine B, rhodamine B]	96 ± 2%	56 ± 1%	
CC1(C)C(/C=C/C=C/C=C/C=C2\N(CCCCS(=O)(=O)[O-])c3ccc4ccccc4c3C2(C)C)=[N+](CCCCS(=O)(=O)[O-])c2ccc3ccccc3c21.[Na+] [ICG dye]			rapidly cause transformation of coacervates into solid aggregates
CNc1ccc2nc3ccc(N)cc3[s+]c2c1 [Azure C, azure C]	98 ± 1%	65 ± 2%	
CN(C)c1ccc2nc3ccc(N)cc3[s+]c2c1.[Cl-] [Azure A, azure A]	95 ± 1%	50 ± 1%	
